# Results as given in patent US8193189B2, “Quinoxaline derivatives as tyrosine kinase activity inhibitors” (Novartis AG, priority 2007, dated 2012).
# Assays:
# [1] = test system: JAK/STAT pathway (JAK1/JAK2-dependent nuclear translocation of STAT1-GFP); assay: Inhibition of the JAK/STAT pathway: IFN-γ stimulated nuclear translocation of STAT1-GFP in HT1080 fibrosarcoma cells; type: cell-based; settings: Homo sapiens, HT-1080; HT1080 STAT1-GFP cells, 100 ng/ml IFN-γ 2 hours, compound added 30 min before; read-out: STAT1translo IC50
# Outline: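 HT1080 cells stably expressing STAT1-GFP, compounds added 30 min before IFN-γ stimulation at final 10 μM down to 0.003 μM (0.1% DMSO). Nuclear-cytoplasmic GFP intensity differential quantified by automated imaging with Hoechst nuclear mask, ≥1000 cells per well, averaged per well.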
# GST-TYK2(888-1187) = molecular target: T1, GST-TYK2(888-1187) (Homo sapiens, UniProt P29597); assay: EPK JAK-family kinases profiling assay (Caliper mobility shift), TYK2; type: biochemical; settings: ATP 30 μM, 40 nM kinase
# T1 construct: GST-TYK2(888-1187); made in house
# T1 sequence (P29597 888-1187): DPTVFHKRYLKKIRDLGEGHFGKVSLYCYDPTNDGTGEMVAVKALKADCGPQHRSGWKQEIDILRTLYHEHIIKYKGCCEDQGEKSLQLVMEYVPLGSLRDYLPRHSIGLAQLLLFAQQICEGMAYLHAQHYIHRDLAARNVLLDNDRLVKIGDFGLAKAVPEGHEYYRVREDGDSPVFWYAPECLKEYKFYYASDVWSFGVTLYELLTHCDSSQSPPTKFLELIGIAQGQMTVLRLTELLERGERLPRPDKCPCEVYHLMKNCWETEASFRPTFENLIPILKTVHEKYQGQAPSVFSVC
# Source text: All four kinases of the JAK-family kinases were used as purified recombinant GST-fusion proteins, containing the active kinase domains. GST-JAK1(866-1154), GST-JAK3(811-1124), and GST-TYK2(888-1187) were expressed and purified by affinity chromatography at the EPK biology unit. GST-JAK2(808-1132) was purchased from Invitrogen (Carlsbad, USA, #4288).
# The kinase assays were based on the Caliper mobility shift assay using the LabChip 3000 systems. This technology is similar to capillary electrophoresis and uses charge driven separation of substrate and product in a microfluidic chip.
# All kinase reactions were performed in 384 well microtiter plates in a total reaction volume of 18 μl. The assay plates were prepared with 0.1 μl per well of test compound in the appropriate test concentration, as described under the section “preparation of compound dilutions”. The reactions were started by combining 9 μl of substrate mix (consisting of peptide and ATP) with 9 μl of kinase dilution. The reactions were incubated for 60 minutes at 30° C. and stopped by adding 70 μl of stop buffer (100 mM Hepes, 5% DMSO, 0.1% Coating reagent, 10 mM EDTA, 0.015% Brij 35).
# Fluorescently labeled synthetic peptides were used as substrates in all reactions. […] Specific assay conditions are described in Table 1:
# The terminated reactions were transferred to the Caliper LabChip 3000 reader and the turnover of each reaction was measured by determining the substrate/product ratio.
# Test compounds were dissolved in DMSO (10 mM) and transferred into 1.4 mL flat bottom or V-shaped Matrix tubes carrying a unique 2D matrix chip by individual compound hubs. The numbers of these chips were distinctively linked to the individual compound identification numbers. The stock solutions were stored at −20° C. if not used immediately. For the test procedure the vials were defrosted and identified by a scanner whereby a working sheet was generated that guided the subsequent working steps.
# Compound dilutions were made in 96 well plates. This format enabled the assay of maximally 40 individual test compounds at 8 concentrations (single points) including 4 reference compounds. The dilution protocol included the production of pre-dilution plates, master plates and assay plates:
# Pre-dilution plates: 96 polypropylene well plates were used as pre-dilution plates. A total of 4 pre-dilution plates were prepared including 10 test compounds each on the plate positions A1-A10, one standard compound at A11 and one DMSO control at A12. All dilution steps were done on a HamiltonSTAR robot.
# Master plates: 100 μL of individual compound dilutions including standard compound and controls of the 4 “pre-dilution plates” were transferred into a 384 “master plate” including the following concentrations 1′820, 564, 182, 54.6, 18.2, 5.46, 1.82 and 0.546 μM, respectively in 90% of DMSO.
# Assay plates: Identical assay plates were then prepared by pipetting 100 nL each of compound dilutions of the master plates into 384-well “assay plates”. […] The preparation of the master plates were handled by the Matrix PlateMate Plus robot and replication of assay plates by the HummingBird robot.
# GST-JAK2(808-1132) = molecular target: T2, GST-JAK2(808-1132) (Homo sapiens, UniProt O60674); assay: EPK JAK-family kinases profiling assay (Caliper mobility shift), JAK2; type: biochemical; settings: ATP 20 μM, 1.8 nM kinase
# T2 construct: GST-JAK2(808-1132); purchased Invitrogen (Carlsbad, USA) #4288
# Outline: (§1)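 Turnover was read as substrate/product ratio after mobility-shift capillary-like separation of each reaction, run for 60 min at 30 °C with GST-tagged kinase domain, labelled peptide and ATP, and terminated with EDTA stop buffer.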
# GST-JAK1(866-1154) = molecular target: T3, GST-JAK1(866-1154) (Homo sapiens, UniProt P23458); assay: EPK JAK-family kinases profiling assay (Caliper mobility shift), JAK1; type: biochemical; settings: ATP 40 μM, 50 nM kinase
# T3 construct: GST-JAK1(866-1154); made in house
# Outline: as §1
# T3 sequence (P23458 866-1154): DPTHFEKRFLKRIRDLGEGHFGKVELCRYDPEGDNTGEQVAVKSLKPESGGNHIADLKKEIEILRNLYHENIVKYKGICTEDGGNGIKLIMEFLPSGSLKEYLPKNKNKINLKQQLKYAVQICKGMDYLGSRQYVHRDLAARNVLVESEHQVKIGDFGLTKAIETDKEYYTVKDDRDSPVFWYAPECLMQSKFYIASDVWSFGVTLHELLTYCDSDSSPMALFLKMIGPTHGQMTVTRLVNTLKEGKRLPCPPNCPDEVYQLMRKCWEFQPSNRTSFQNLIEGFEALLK
# T2 sequence (O60674 808-1132): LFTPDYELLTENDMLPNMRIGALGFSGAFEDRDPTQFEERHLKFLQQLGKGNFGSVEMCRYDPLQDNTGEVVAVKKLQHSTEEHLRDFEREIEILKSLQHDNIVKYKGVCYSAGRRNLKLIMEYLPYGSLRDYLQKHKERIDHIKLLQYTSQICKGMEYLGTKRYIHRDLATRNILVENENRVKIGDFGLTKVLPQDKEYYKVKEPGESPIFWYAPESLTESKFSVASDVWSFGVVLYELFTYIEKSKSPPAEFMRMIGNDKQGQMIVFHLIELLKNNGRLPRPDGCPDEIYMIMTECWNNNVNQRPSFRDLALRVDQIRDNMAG
Compound,IC50 [1] [nM],IC50 (GST-TYK2(888-1187)) [nM],IC50 (GST-JAK2(808-1132)) [nM],IC50 (GST-JAK1(866-1154)) [nM]
"Cc1cc(CN2CCS(=O)(=O)CC2)ccc1-c1cccc2ncc(-c3cnn(C4CCNCC4)c3)nc12 [Example 149, 8-[4-(1,1-Dioxido-thiomorpholin-4-ylmethyl)-2-methyl-phenyl]-2-(1-piperidin-4-yl-1H-pyrazol-4-yl)-quinoxaline]",9560,900,51,650
"COC(=O)N1CCC(n2cc(-c3cnc4cccc(-c5cc(F)c(CN6CCOCC6)c(F)c5)c4n3)cn2)CC1 [Example 130, 4-{4-[8-(3,5-Difluoro-4-morpholin-4-ylmethyl-phenyl)-quinoxalin-2-yl]-pyrazol-1-yl}-piperidine-1-carboxylic acid methyl ester]",163,200,3.4,150
"Cc1c(-c2cnc3cccc(-c4cc(F)c(CN5CCOCC5)c(F)c4)c3n2)cnn1C1CCNCC1 [Example 125, 8-(3,5-Difluoro-4-morpholin-4-ylmethyl-phenyl)-2-(5-methyl-1-piperidin-4-yl-1H-pyrazol-4-yl)-quinoxaline]",369,210,< 3,310
"c1cc(-c2ccc(CN3CCOCC3)cc2)c2nc(-c3cnn(C4CCNCC4)c3)cnc2c1 [Example 150, 8-(4-Morpholin-4-ylmethyl-phenyl)-2-(1-piperidin-4-yl-1H-pyrazol-4-yl)-quinoxaline]",4280,830,30,830
"Cc1nn(C2CCNCC2)c(C)c1-c1cnc2cccc(-c3ccc(CN4CCS(=O)(=O)CC4)cc3)c2n1 [Example 157, 2-(3,5-Dimethyl-1-piperidin-4-yl-1H-pyrazol-4-yl)-8-[4-(1,1-dioxido-thiomorpholin-4-ylmethyl)-phenyl]-quinoxaline]",–,6400,140,3600
"Cc1nn(C2CCNCC2)c(C)c1-c1cnc2cccc(-c3cc(F)c(CN4CCOCC4)c(F)c3)c2n1 [Example 155, 8-(3,5-Difluoro-4-morpholin-4-ylmethyl-phenyl)-2-(3,5-dimethyl-1-piperidin-4-yl-1H-pyrazol-4-yl)-quinoxaline]",–,7600,63,3400
"Cc1nn(C2CCNCC2)c(C)c1-c1cnc2cccc(-c3ccc(CN4CCOCC4)cc3)c2n1 [Example 156, 2-(3,5-Dimethyl-1-piperidin-4-yl-1H-pyrazol-4-yl)-8-(4-morpholin-4-ylmethyl-phenyl)-quinoxaline]",–,> 10000,950,> 10000
"CN1CCN(C(=O)c2cc(-c3cnc4cccc(-c5cc(F)c(CN6CCOCC6)c(F)c5)c4n3)cn2C)CC1 [Example 167, {4-[8-(3,5-Difluoro-4-morpholin-4-ylmethyl-phenyl)-quinoxalin-2-yl]-1-methyl-1H-pyrrol-2-yl}-(4-methyl-piperazin-1-yl)-methanone]",–,180,8.1,53
"Fc1cc(-c2cccc3ncc(-c4cnn(C5CCCNC5)c4)nc23)cc(F)c1CN1CCOCC1 (racemic) [Example 160, (rac)-8-(3,5-Difluoro-4-morpholin-4-ylmethyl-phenyl)-2-(1-piperidin-3-yl-1H-pyrazol-4-yl)-quinoxaline]",–,400,6.4,360
"CN1CCN(C(=O)c2cccc(-c3cnc4cccc(-c5cc(F)c(CN6CCS(=O)(=O)CC6)c(F)c5)c4n3)c2)CC1 [Example 166, (3-{8-[4-(1,1-Dioxido-thiomorpholin-4-ylmethyl)-3,5-difluoro-phenyl]-quinoxalin-2-yl}-phenyl)-(4-methyl-piperazin-1-yl)-methanone]",–,270,11,70
"O=S1(=O)CCN(Cc2c(F)cc(-c3cccc4ncc(-c5cccc(N6CCNCC6)c5)nc34)cc2F)CC1 [Example 169, 8-[4-(1,1-Dioxido-thiomorpholin-4-ylmethyl)-3,5-difluoro-phenyl]-2-(3-piperazin-1-yl-phenyl)-quinoxaline]",–,26,< 3,17
"CC(C)(O)C#Cc1cnc2cccc(-c3cc(F)c(CN4CCS(=O)(=O)CC4)c(F)c3)c2n1 [Example 171, 4-{8-[4-(1,1-Dioxido-thiomorpholin-4-ylmethyl)-3,5-difluoro-phenyl]-quinoxalin-2-yl}-2-methyl-but-3-yn-2-ol]",–,2000,70,440
"CN1CCN(C(=O)c2cccc(-c3cnc4cccc(-c5cc(F)c(CN6CCOCC6)c(F)c5)c4n3)c2)CC1 [Example 164, {3-[8-(3,5-Difluoro-4-morpholin-4-ylmethyl-phenyl)-quinoxalin-2-yl]-phenyl}-(4-methyl-piperazin-1-yl)-methanone]",–,2000,50,300
"COc1ccc(-c2cnc3cccc(-c4ccc(CN5CCS(=O)(=O)CC5)cc4)c3n2)cc1N1CCN(C)CC1 [Example 161, 8-[4-(1,1-Dioxido-thiomorpholin-4-ylmethyl)-phenyl]-2-[4-methoxy-3-(4-methyl-piperazin-1-yl)-phenyl]-quinoxaline]",–,480,< 3,110
"CN1CCN(C(=O)c2cc(-c3cnc4cccc(-c5cc(F)c(CN6CCS(=O)(=O)CC6)c(F)c5)c4n3)cn2C)CC1 [Example 168, (4-{8-[4-(1,1-Dioxido-thiomorpholin-4-ylmethyl)-3,5-difluoro-phenyl]-quinoxalin-2-yl}-1-methyl-1H-pyrrol-2-yl)-(4-methyl-piperazin-1-yl)-methanone]",–,30,< 3,16
"Cc1cc(CN2CCOCC2)ccc1-c1cccc2ncc(-c3cnn(C4CCNCC4)c3)nc12 [Example 147, 8-(2-Methyl-4-morpholin-4-ylmethyl-phenyl)-2-(1-piperidin-4-yl-1H-pyrazol-4-yl)-quinoxaline]",–,1000,97,1500
"COc1ccc(-c2cnc3cccc(-c4cc(F)c(CN5CCOCC5)c(F)c4)c3n2)cc1N1CCN(C)CC1 [Example 162, 8-(3,5-Difluoro-4-morpholin-4-ylmethyl-phenyl)-2-[4-methoxy-3-(4-methyl-piperazin-1-yl)-phenyl]-quinoxaline]",–,360,5.7,69
"COc1ccc(-c2cnc3cccc(-c4cc(F)c(CN5CCS(=O)(=O)CC5)c(F)c4)c3n2)cc1N1CCN(C)CC1 [Example 163, 8-[4-(1,1-Dioxido-thiomorpholin-4-ylmethyl)-3,5-difluoro-phenyl]-2-[4-methoxy-3-(4-methyl-piperazin-1-yl)-phenyl]-quinoxaline]",–,88,< 3,77
